Laboratory results: the NIST ThermoML archive (doi:10.1021/je900482x)

Experiment: isobaric coefficient of expansion
Settings: Liquid, Microcalorimeter

CCn1cc[n+](C)c1.O=S(=O)([N-]S(=O)(=O)C(F)(F)F)C(F)(F)F
isobaric coefficient of expansion
Settings	5000 kPa	10000 kPa	15000 kPa	20000 kPa	25000 kPa	30000 kPa	35000 kPa	40000 kPa	45000 kPa	50000 kPa
278.15 K	0.00067 1/K	0.000659 1/K	0.000651 1/K	0.000645 1/K	0.000634 1/K	0.000628 1/K	0.000623 1/K	0.000612 1/K	0.000606 1/K	0.0006 1/K
288.15 K	0.000664 1/K	0.000653 1/K	0.000646 1/K	0.00064 1/K	0.000631 1/K	0.000623 1/K	0.000616 1/K	0.000606 1/K	0.000601 1/K	0.000597 1/K
298.15 K	0.000659 1/K	0.000651 1/K	0.000641 1/K	0.000633 1/K	0.000624 1/K	0.000617 1/K	0.000606 1/K	0.0006 1/K	0.000595 1/K	0.000589 1/K
308.15 K	0.000656 1/K	0.000644 1/K	0.000637 1/K	0.000627 1/K	0.000618 1/K	0.000611 1/K	0.000605 1/K	0.000597 1/K	0.000589 1/K	0.000581 1/K
318.15 K	0.000649 1/K	0.000644 1/K	0.000634 1/K	0.000623 1/K	0.000615 1/K	0.000607 1/K	0.000599 1/K	0.00059 1/K	0.000582 1/K	0.000576 1/K
328.15 K	0.000645 1/K	0.000635 1/K	0.000628 1/K	0.00062 1/K	0.000609 1/K	0.000601 1/K	0.000593 1/K	0.000584 1/K	0.000576 1/K	0.00057 1/K
338.15 K	0.000643 1/K	0.000633 1/K	0.000624 1/K	0.000614 1/K	0.000604 1/K	0.000598 1/K	0.000588 1/K	0.000582 1/K	0.000574 1/K	0.000569 1/K
348.15 K	0.00064 1/K	0.000629 1/K	0.00062 1/K	0.000612 1/K	0.000602 1/K	0.000595 1/K	0.000588 1/K	0.000579 1/K	0.000572 1/K	0.000565 1/K

CCCCCCCC[n+]1ccn(C)c1.F[B-](F)(F)F [1-methyl-3-octylimidazolium tetrafluoroborate]
isobaric coefficient of expansion
Settings	5000 kPa	10000 kPa	15000 kPa	20000 kPa	25000 kPa	30000 kPa	35000 kPa	40000 kPa	45000 kPa	50000 kPa
278.15 K	0.000621 1/K	0.000613 1/K	0.000605 1/K	0.000598 1/K	0.00059 1/K	0.000584 1/K	0.000576 1/K	0.000572 1/K	0.000562 1/K	0.000558 1/K
288.15 K	0.000616 1/K	0.000606 1/K	0.0006 1/K	0.000593 1/K	0.000586 1/K	0.000579 1/K	0.000572 1/K	0.000565 1/K	0.000558 1/K	0.000555 1/K
298.15 K	0.00061 1/K	0.000603 1/K	0.000595 1/K	0.000586 1/K	0.00058 1/K	0.000573 1/K	0.000564 1/K	0.000558 1/K	0.000552 1/K	0.000547 1/K
308.15 K	0.000605 1/K	0.000596 1/K	0.000589 1/K	0.000579 1/K	0.000572 1/K	0.000565 1/K	0.00056 1/K	0.000553 1/K	0.000545 1/K	0.000541 1/K
318.15 K	0.000599 1/K	0.000594 1/K	0.000585 1/K	0.000573 1/K	0.000566 1/K	0.00056 1/K	0.000554 1/K	0.000545 1/K	0.000537 1/K	0.000532 1/K
328.15 K	0.000594 1/K	0.000587 1/K	0.00058 1/K	0.000572 1/K	0.000562 1/K	0.000555 1/K	0.000549 1/K	0.00054 1/K	0.000536 1/K	0.000531 1/K
338.15 K	0.000591 1/K	0.000584 1/K	0.000575 1/K	0.000567 1/K	0.000558 1/K	0.000553 1/K	0.000544 1/K	0.000538 1/K	0.000532 1/K	0.000528 1/K
348.15 K	0.000588 1/K	0.000582 1/K	0.000572 1/K	0.000563 1/K	0.000555 1/K	0.000548 1/K	0.000543 1/K	0.000535 1/K	0.000529 1/K	0.000522 1/K

CCCCCC[n+]1ccn(C)c1.O=S(=O)([N-]S(=O)(=O)C(F)(F)F)C(F)(F)F
isobaric coefficient of expansion
Settings	5000 kPa	10000 kPa	15000 kPa	20000 kPa	25000 kPa	30000 kPa	35000 kPa	40000 kPa	45000 kPa	50000 kPa
278.15 K	0.000674 1/K	0.000662 1/K	0.000654 1/K	0.000641 1/K	0.000635 1/K	0.000628 1/K	0.000619 1/K	0.000612 1/K	0.000602 1/K	0.000596 1/K
288.15 K	0.000668 1/K	0.000658 1/K	0.000647 1/K	0.000637 1/K	0.00063 1/K	0.00062 1/K	0.000614 1/K	0.000604 1/K	0.000597 1/K	0.000592 1/K
298.15 K	0.000664 1/K	0.000654 1/K	0.000643 1/K	0.000633 1/K	0.000626 1/K	0.000615 1/K	0.000605 1/K	0.000596 1/K	0.00059 1/K	0.000584 1/K
308.15 K	0.000659 1/K	0.000648 1/K	0.000637 1/K	0.000628 1/K	0.000618 1/K	0.000609 1/K	0.0006 1/K	0.000594 1/K	0.000585 1/K	0.000577 1/K
318.15 K	0.000654 1/K	0.000647 1/K	0.000637 1/K	0.000623 1/K	0.000615 1/K	0.000606 1/K	0.000597 1/K	0.000588 1/K	0.000578 1/K	0.000571 1/K
328.15 K	0.00065 1/K	0.000639 1/K	0.000632 1/K	0.000621 1/K	0.000609 1/K	0.000599 1/K	0.000591 1/K	0.000582 1/K	0.000574 1/K	0.000567 1/K
338.15 K	0.000649 1/K	0.000637 1/K	0.000627 1/K	0.000616 1/K	0.000605 1/K	0.000597 1/K	0.000588 1/K	0.00058 1/K	0.000571 1/K	0.000567 1/K
348.15 K	0.000644 1/K	0.000635 1/K	0.000623 1/K	0.00061 1/K	0.000602 1/K	0.000592 1/K	0.000584 1/K	0.000575 1/K	0.000567 1/K	0.000559 1/K

CCn1cc[n+](C)c1.F[B-](F)(F)F [1-ethyl-3-methylimidazolium tetrafluoroborate]
isobaric coefficient of expansion
Settings	5000 kPa	10000 kPa	15000 kPa	20000 kPa	25000 kPa	30000 kPa	35000 kPa	40000 kPa	45000 kPa	50000 kPa
278.15 K	0.000613 1/K	0.000605 1/K	0.000596 1/K	0.000591 1/K	0.000585 1/K	0.00058 1/K	0.000574 1/K	0.000567 1/K	0.00056 1/K	0.000555 1/K
288.15 K	0.000614 1/K	0.000602 1/K	0.000591 1/K	0.000587 1/K	0.000581 1/K	0.000574 1/K	0.000569 1/K	0.000561 1/K	0.000556 1/K	0.000554 1/K
298.15 K	0.000601 1/K	0.000596 1/K	0.000587 1/K	0.00058 1/K	0.000575 1/K	0.000568 1/K	0.000561 1/K	0.000554 1/K	0.000549 1/K	0.000545 1/K
308.15 K	0.000597 1/K	0.000589 1/K	0.000581 1/K	0.000573 1/K	0.000566 1/K	0.000561 1/K	0.000554 1/K	0.00055 1/K	0.000542 1/K	0.000537 1/K
318.15 K	0.000589 1/K	0.000585 1/K	0.000576 1/K	0.000569 1/K	0.000563 1/K	0.000556 1/K	0.00055 1/K	0.000544 1/K	0.000537 1/K	0.000532 1/K
328.15 K	0.000585 1/K	0.000578 1/K	0.000573 1/K	0.000566 1/K	0.000557 1/K	0.00055 1/K	0.000544 1/K	0.000537 1/K	0.000533 1/K	0.000528 1/K
338.15 K	0.000582 1/K	0.000574 1/K	0.000569 1/K	0.00056 1/K	0.000553 1/K	0.000549 1/K	0.00054 1/K	0.000534 1/K	0.000529 1/K	0.000525 1/K
348.15 K	0.000579 1/K	0.000574 1/K	0.000566 1/K	0.000562 1/K	0.000554 1/K	0.000546 1/K	0.00054 1/K	0.000533 1/K	0.000527 1/K	0.000521 1/K
